Assay results published in US20210238192A1, “VASCULAR ADHESION PROTEIN-1 (VAP-1) MODULATORS AND THERAPEUTIC USES THEREOF” (Blade Therapeutics, Inc., priority 2018, published 2021).
Counter-ions that a name gives are not always drawn.

How the values were obtained:
Format in all cases: biochemical
Human MAO-B = target: T1, Human MAO-B (Homo sapiens, UniProt P27338); test: MAO-B inhibition (Amplex Red continuous fluorescence assay); conditions: 30 min pre-incubation at room temp; substrate benzylamine; read-out: Human MAO-B IC50
T1 sequence (P27338 1-520): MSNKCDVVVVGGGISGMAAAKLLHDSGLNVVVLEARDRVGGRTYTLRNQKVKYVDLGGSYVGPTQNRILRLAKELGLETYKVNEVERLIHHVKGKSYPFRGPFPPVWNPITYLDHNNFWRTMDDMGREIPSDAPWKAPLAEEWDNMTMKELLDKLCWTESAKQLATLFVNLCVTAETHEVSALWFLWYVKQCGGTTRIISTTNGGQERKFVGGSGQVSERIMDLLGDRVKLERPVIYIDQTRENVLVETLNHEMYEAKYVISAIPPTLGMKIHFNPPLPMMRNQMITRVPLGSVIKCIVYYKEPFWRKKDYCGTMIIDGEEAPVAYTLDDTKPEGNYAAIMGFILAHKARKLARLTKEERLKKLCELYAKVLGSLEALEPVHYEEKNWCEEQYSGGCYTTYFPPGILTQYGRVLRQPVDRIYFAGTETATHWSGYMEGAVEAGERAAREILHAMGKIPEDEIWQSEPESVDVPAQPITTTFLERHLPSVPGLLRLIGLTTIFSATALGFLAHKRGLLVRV
Procedure: (§1) VAP-1, DAO, MAO-A, MAO-B, and HRP activity and inhibition thereof was assessed by means of a continuous fluorescence assay. The Amplex Red Hydrogen Peroxide/Peroxidase Assay (ThermoFisher) was optimized for detecting amine oxidase (AO) activity. In an enzyme-coupled reaction, the H2O2 generated by AO reacts 1:1 with Amplex Red reagent to produce fluorescent product resorufin.
(§2) Assays were typically setup in black 384-well plates using automated liquid handling as follows. VAP-1/MAO assay buffer contains […] sodium phosphate, pH 7.4; DAO assay buffer contains 50 mM HEPES, pH 7.5; HRP assay buffer contains 100 mM CHES, 1 mM MgCl2, 50 mM NaCl, 0.05% BSA, pH 9.0. Inhibitors were serially diluted in DMSO and used to setup 2× mixtures with AO in the aforementioned buffer. After 30 min pre-incubation at 37° C. (VAP-1, HRP) or room temp (DAO, MAO), the reaction was initiated by adding a 2× mix of Amplex Red, HRP (coupling enzyme), and substrate (benzylamine, histamine, tyramine, benzylamine, H2O2, for VAP-1, DAO, MAO-A, MAO-B, and HR, respectively) in the same buffer. Reaction progress curve data were typically collected for 5 min using excitation/emission wavelengths of 510 nm/565 nm on FLIPR-Tetra plate readers (Molecular Devices Inc). Reaction rates were calculated from progress curve slopes typically over 60-150 sec. Dose response curves (rate vs. log inhibitor concentration) were typically fit to a 4-parameter logistic function to extract IC50 values.

Human VAP-1 = target: T2, Human VAP-1 (Homo sapiens, UniProt Q16853); test: VAP-1 inhibition assay (Amplex Red continuous fluorescence assay); conditions: 30 min pre-incubation at 37° C.; substrate benzylamine; read-out: Human VAP-1 IC50
T2 sequence (Q16853 1-763): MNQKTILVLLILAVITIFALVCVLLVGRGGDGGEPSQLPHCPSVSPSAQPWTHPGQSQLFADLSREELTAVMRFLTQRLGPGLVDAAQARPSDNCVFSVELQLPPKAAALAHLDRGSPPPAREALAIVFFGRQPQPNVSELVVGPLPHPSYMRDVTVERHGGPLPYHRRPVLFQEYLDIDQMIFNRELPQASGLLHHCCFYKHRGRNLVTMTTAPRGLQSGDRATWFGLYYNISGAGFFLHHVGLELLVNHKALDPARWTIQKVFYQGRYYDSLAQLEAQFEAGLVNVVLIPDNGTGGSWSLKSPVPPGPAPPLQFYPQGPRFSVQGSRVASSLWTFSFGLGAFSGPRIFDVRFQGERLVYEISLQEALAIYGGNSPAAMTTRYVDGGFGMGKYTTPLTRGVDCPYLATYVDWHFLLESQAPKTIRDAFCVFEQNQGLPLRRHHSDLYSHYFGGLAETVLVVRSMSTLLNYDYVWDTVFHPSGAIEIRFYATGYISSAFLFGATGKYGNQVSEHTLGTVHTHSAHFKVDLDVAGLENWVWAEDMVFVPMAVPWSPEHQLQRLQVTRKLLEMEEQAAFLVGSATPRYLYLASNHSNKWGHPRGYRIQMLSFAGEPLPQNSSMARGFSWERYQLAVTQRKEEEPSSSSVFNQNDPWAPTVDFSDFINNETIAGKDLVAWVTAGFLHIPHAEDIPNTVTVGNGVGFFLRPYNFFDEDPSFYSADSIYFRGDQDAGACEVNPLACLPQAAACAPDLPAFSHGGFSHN
Procedure: as §1, §2

Human MAO-A = target: T3, Human MAO-A (Homo sapiens, UniProt P21397); test: MAO-A inhibition (Amplex Red continuous fluorescence assay); conditions: 30 min pre-incubation at room temp; substrate tyramine; read-out: Human MAO-A IC50
T3 sequence (P21397 1-527): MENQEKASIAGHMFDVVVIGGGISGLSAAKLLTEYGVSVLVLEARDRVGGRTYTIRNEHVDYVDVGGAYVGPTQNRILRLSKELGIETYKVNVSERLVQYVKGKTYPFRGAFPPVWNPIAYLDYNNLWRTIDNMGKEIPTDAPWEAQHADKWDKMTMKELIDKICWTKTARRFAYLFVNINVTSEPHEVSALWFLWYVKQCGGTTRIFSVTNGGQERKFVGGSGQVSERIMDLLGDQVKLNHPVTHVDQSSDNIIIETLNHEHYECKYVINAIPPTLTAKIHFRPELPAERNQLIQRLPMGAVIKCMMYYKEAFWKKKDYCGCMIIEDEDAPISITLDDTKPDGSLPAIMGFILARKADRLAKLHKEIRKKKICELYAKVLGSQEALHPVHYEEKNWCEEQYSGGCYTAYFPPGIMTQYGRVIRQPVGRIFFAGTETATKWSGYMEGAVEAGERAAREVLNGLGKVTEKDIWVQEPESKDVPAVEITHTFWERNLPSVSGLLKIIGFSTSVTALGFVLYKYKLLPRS
Procedure: as §1, §2

Human DAO = target: T4, Human DAO (Homo sapiens, UniProt P19801); test: DAO inhibition (Amplex Red continuous fluorescence assay); conditions: 30 min pre-incubation at room temp; substrate histamine; read-out: Human DAO IC50
T4 sequence (P19801 20-751): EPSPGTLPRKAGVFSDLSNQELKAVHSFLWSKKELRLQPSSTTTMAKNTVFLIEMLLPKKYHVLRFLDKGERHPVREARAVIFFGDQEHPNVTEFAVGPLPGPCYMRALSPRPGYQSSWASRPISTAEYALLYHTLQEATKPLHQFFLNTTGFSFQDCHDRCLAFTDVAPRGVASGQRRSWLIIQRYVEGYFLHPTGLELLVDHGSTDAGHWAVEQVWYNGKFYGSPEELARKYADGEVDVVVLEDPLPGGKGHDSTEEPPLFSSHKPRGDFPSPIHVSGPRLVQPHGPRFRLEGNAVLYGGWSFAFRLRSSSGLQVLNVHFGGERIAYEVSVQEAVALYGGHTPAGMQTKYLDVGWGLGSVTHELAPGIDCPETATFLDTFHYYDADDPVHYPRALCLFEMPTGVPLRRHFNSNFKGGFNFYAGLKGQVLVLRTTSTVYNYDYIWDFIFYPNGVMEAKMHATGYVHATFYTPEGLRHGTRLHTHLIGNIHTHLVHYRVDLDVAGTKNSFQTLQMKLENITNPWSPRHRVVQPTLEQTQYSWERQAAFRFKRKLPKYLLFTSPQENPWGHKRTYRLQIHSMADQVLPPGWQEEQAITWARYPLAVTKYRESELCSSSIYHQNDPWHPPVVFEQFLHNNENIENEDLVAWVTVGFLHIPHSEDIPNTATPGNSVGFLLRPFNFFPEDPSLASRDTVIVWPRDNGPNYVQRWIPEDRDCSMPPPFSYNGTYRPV
Procedure: as §1, §2

IC50 (Human MAO-B) [µM]	IC50 (Human VAP-1) [µM]	IC50 (Human MAO-A) [µM]	IC50 (Human DAO) [µM]	Structure (SMILES)
> 10	> 10	> 10	–	NCC(=CF)CN1CCCCC1 (mixture of isomers) [Compound 12, 3-fluoro-2-(piperidin-1-ylmethyl)prop-2-en-1-amine]
> 10	> 10	> 10	–	CC(=O)N(CC(=CF)CN)C1CCCCC1 (mixture of isomers) [Compound 31, hydrochloride]
> 10	> 10	> 10	–	CC(=O)N(C/C(=C/F)CN)c1ccccc1 [Compound 1, (E)-N-(2-(aminomethyl)-3-fluoroalkyl)-N-phenylacetamide hydrochloride]
> 10	3 to 10	> 10	–	NC/C(=C\F)COc1cccc2[nH]cnc12 [Compound 2, hydrochloride]
< 3	< 3	> 10	> 10	NC/C(=C\F)CNc1ccccc1 [Compound 3, (E)-2-(fluoromethylene)-N^1-phenylpropane-1,3-diamine hydrochloride]
> 10	< 3	> 10	< 3	NC/C(=C\F)COc1ccc(-c2ncc[nH]2)cc1 [Compound 4, (E)-2-((4-(1H-imidazol-2-yl)phenoxy)methyl)-3-fluoroprop-2-en-1-amine]
< 3	< 3	< 3	> 10	NC/C(=C\F)COCc1ccccc1 [Compound 5, (E)-2-((benzyloxy)methyl)-3-fluoroprop-2-en-1-amine hydrochloride]
< 3	< 3	< 3	3 to 10	NC/C(=C/F)COCc1ccccc1 [Compound 6, (Z)-2-((benzyloxy)methyl)-3-fluoroprop-2-en-1-amine hydrochloride]
< 3	< 3	3 to 10	3 to 10	CCNC(=O)Nc1ccc(OC/C(=C/F)CN)cc1 [Compound 7, (E)-1-(4-((2-(aminomethyl)-3-fluoroalkyl)oxy)phenyl)-3-ethylurea hydrochloride]
< 3	< 3	< 3	< 3	NC/C(=C\F)COc1cccc2scnc12 [Compound 8, (E)-2-((benzo[d]thiazol-4-yloxy)methyl)-3-fluoroprop-2-en-1-amine hydrochloride]
< 3	< 3	3 to 10	> 10	NC/C(=C/F)COc1cccc2scnc12 [Compound 9, (Z)-2-((benzo[d]thiazol-4-yloxy)methyl)-3-fluoroprop-2-en-1-amine hydrochloride]
< 3	< 3	> 10	< 3	NC/C(=C\F)COc1ccc(-c2nc3ccccc3[nH]2)cc1 [Compound 10, (E)-2-((4-(1H-benzo[d]imidazol-2-yl)phenoxy)methyl)-3-fluoroprop-2-en-1-amine hydrochloride]
> 10	3 to 10	> 10	–	NC/C(=C\F)CNS(=O)(=O)c1ccccc1 [Compound 17, (E)-N-(2-(aminomethyl)-3-fluoroalkyl)benzenesulfonamide hydrochloride]
3 to 10	> 10	> 10	–	NC/C(=C\F)CNC1CCCCC1 [Compound 22, (E)-N1-cyclohexyl-2-(fluoromethylene)propane-1,3-diamine]
< 3	< 3	> 10	–	Cn1ccnc1-c1ccc(OC/C(=C/F)CN)cc1 [Compound 27, (E)-3-fluoro-2-((4-(1-methyl-1H-imidazol-2-yl)phenoxy)methyl)prop-2-en-1-aminedihydrochloride]
> 10	> 10	> 10	–	CC(=O)N(CC(=CF)CN)Cc1ccccc1 [Compound 32]
< 3	–	> 10	< 3	NC/C(=C\F)COc1ccc(C(=O)NCCCCCNC(=O)CCCCC2SCC3NC(=O)NC32)cc1 (centres unmarked) [Compound 76, (E)-4-((2-(aminomethyl)-3-fluoroalkyl)oxy)-N-(5-(5-(2-oxohexahydro-1H-thieno[3,4-d]imidazol-4-yl)pentanamido)pentyl)benzamide]
3 to 10	–	> 10	< 3	NC/C(=C\F)COc1ccc(C(=O)NCCOCCOCCOCCNC(=O)CCCCC2SCC3NC(=O)NC32)cc1 (centres unmarked) [Compound 77, (E)-4-((2-(aminomethyl)-3-fluoroalkyl)oxy)-N-(13-oxo-17-(2-oxohexahydro-1H-thieno[3,4-d]imidazol-4-yl)-3,6,9-trioxa-12-azaheptadecyl)benzamide]
